Columns and labels:
[1] = tested on: A2780 ovarian carcinoma cells; test: MTT cytotoxicity assay, A2780; conditions: read-out: cytotoxicity IC50; A2780, ovarian; MTT, 48 h treatment; spread in brackets
From the text: (§1) (a) Dulbecco's Modified Eagle Medium (DMEM), Dulbecco's phosphate buffered saline (DPBS), fetal bovine serum (FBS) and 0.25% trypsin/EDTA solutions were purchased from Cellgro (Manassas, Va.). Penicillin-streptomycin solutions were purchased from Mediatech (Manassas, Va.). (b) HeLa (CCL-2TM) cells, A549, A2870, A2870/CP70, MCF-7, PC-3, and MRC-5 cells were purchased from American Type Culture Collection (ATCC, Manassas, Va., USA). (c) HCT116 cells were kindly donated by Laura Trudel (MIT). HeLa, A549, MCF-7, and MRC-5 cells were cultured using DMEM supplemented with 10% FBS and 1% penicillin-streptomycin. A2870, A2870/CP70, and PC-3 cells were cultured in RPMI supplemented with 10% FBS and 1% penicillin-streptomycin. HCT116 cells were cultured in McCoy's supplemented with 10% FBS and 1% penicillin-streptomycin. All cell-culture experiments were performed in the aforementioned media in an incubator operating at 37° C. and in the presence of a humidified atmosphere containing 5.0% CO2. Cells were harvested using a 0.25% trypsin/EDTA solution.
(§2) The cytotoxicity of the compounds was assessed by means of the MTT assay (MTT=3-(4,5-dimethyl-2-thiazolyl)-2,5-diphenyl-2H-tetrazolium bromide). Typically, on day one, ˜1×10^3 cells were seeded into 96-well plates in 100 μL media per well. […] The optical density for each well at 550 nm was measured with a microplate reader.

MCF-7 cells = test: MTT cytotoxicity assay, MCF-7; conditions: read-out: cytotoxicity IC50; MCF-7, breast; MTT, 48 h treatment; spread in brackets
From the text: as §1
The cytotoxicity of the compounds was assessed by means of the MTT assay (MTT=3-(4,5-dimethyl-2-thiazolyl)-2,5-diphenyl-2H-tetrazolium bromide). Typically, on day one, ˜1×10^3 cells were seeded into 96-well plates in 100 μL media per well. The last row of the plate was left empty as a control for background absorption. The cells were allowed to grow for 24 h in the incubator at 37° C. On day two, a series of drug dilutions in growth media were prepared immediately prior to cell treatment. The media in the wells of the 96 plates were replaced with 100 μL of growth media containing appropriate drug concentrations. The cells were treated for 48 h at 37° C. in the incubator. On day four, a stock solution of MTT (5 mg/mL in PBS buffer) was diluted with media so that, when 100 μL of the media was added to each well, 10 μL of MTT stock was applied. […] The optical density for each well at 550 nm was measured with a microplate reader.

all cell lines = test: MTT cytotoxicity assay, across the cell lines; assay type: cell-based; conditions: non-tumorigenic lung fibroblast cells (MRC-5) vs ovarian carcinoma cells (A2780)
From the text: as §1, §2

A549 cells [2] = test: Immunoblotting of DNA damage and apoptosis biomarkers; assay type: cell-based; conditions: 0.75-6 μM, 48 h
Description: To gain further insight into the cellular response evoked by Pt(IV)(α-TOS)(OEt) treatment, biomarkers related to DNA damage and apoptosis were monitored. […] Whole cell lysates were resolved by SDS-PAGE and analyzed by immunoblotting against γH2AX, p53, and cleaved caspase-7, cleaved caspase-9, cleaved PARP-1, and β-actin as control.
A549 cells (5×10^5 cells) were incubated with test compound for 48 h at 37° C. Cells were washed with PBS, scraped into SDS-PAGE loading buffer (64 mM Tris-HCl (pH6.8)/9.6% glycerol/2% SDS/5% β-mercaptoethanol/0.01% Bromophenol Blue) and incubated at 95° C. for 10 min. Whole cell lysates were resolved by 4-20% sodium dodecylsulphate polyacylamide gel electrophoresis (SDS-PAGE; 200 V for 1 h) followed by electro transfer to polyvinylidene difluoride membrane, PVDF (350 mA for 1 h). Membranes were blocked in 5% (w/v) non-fat milk in PBST (PBS/0.1% Tween 20) and incubated with the appropriate primary antibodies (Cell Signalling Technology and Santa Cruz). After incubation with horseradish peroxidase-conjugated secondary antibodies (Cell Signalling Technology), immune complexes were detected with the ECL detection reagent (BioRad) and analysed using an Alpha Innotech ChemiImager™ 5500 fitted with a chemiluminescence filter.

A549 cells [3] = test: JC-1 mitochondrial membrane potential assay; assay type: cell-based
Description: To investigate the effect of Pt(IV)(α-TOS)(OEt) on mitochondria, changes in the mitochondrial membrane potential were assessed by the JC-1 assay. JC-1 (5,5′,6,6′-tetrachloro-1,1′3,3′-tetraethylbenzimidazolylcarbocyanine iodide) is a positively charged lipophilic dye, which accumulates in the mitochondria of healthy cells as red-emitting aggregates. When the mitochondrial membrane is compromised, JC-1 de-aggregates into monomeric forms that emit green fluorescence. […] These findings were confirmed using flow cytometry. A large population of untreated and Pt(IV)(α-TOS)(OEt)-treated A549 cells were examined.
In order to monitor the cell cycle, flow cytometry studies were carried out. A549 cells were incubated with and without the test compounds for 24 and 48 h at 37° C. Cells were harvested from adherent cultures by trypsinization and combined with all detached cells from the incubation medium to assess total cell viability. Following centrifugation at 1000 rpm for 5 min, cells were washed with PBS and then fixed with 70% ethanol in PBS. Fixed cells were collected by centrifugation at 2500 rpm for 3 min, washed with PBS and centrifuged as before. Cellular pellets were re-suspended in 50 μg/mL propidium iodide (Sigma) in PBS for nucleic acids staining and treated with 100 μg/mL RNaseA (Sigma). DNA content was measured on a FACSCalibur-HTS flow cytometer (BD Biosciences) using laser excitation at 488 nm and 20,000 events per sample were acquired. Cell cycle profiles were analysed using the ModFit software. For the apoptosis experiments, the Annexin V-FITC Early Apoptosis Detection Kit (Cell Signaling Technology) was used. […] The samples were kept on ice prior to being read on the FACSCalibur-HTS flow cytometer (BD Biosciences) (20,000 events per sample were acquired). Cell populations were analysed using the FlowJo software (Tree Star). […] The cells were incubated for 30 min, harvested, and analysed by using the FACSCalibur-HTS flow cytometer (BD Biosciences) (20,000 events per sample were acquired). […] Cell populations were analysed using the FlowJo software (Tree Star).

## CC[O][Pt]([NH2])([NH2])([Cl])([Cl])[O]C(=O)CCC(=O)Oc1c(C)c(C)c2c(c1C)CCC(C)(CCCC(C)CCCC(C)CCCC(C)C)O2 (stereo not drawn) [Pt(IV)(α-TOS)(OEt)]
[1]
  IC50: 0.02 µM
MCF-7 cells
  IC50: 5.9 µM
All cell lines
  reduction in toxicity for MRC-5 compared to A2780: 265 fold
A549 cells [2]
  cleaved PARP-1 expression: increased
  cleaved caspase-9 expression: increased
  p53 expression: increased in a dose-dependent manner
  γH2AX expression: an increase in γH2AX expression
A549 cells [3]; 25 μM, 4 h
  cells expressing green JC-1 fluorescence (FL1-H), flow cytometry: a marked increase in cells expressing green fluorescence
A549 cells [3]; cisplatin or Pt(IV)(α-TOS)(OEt) at 20 μM, 4 hours
  JC-1 fluorescence (mitochondrial membrane disruption), microscopy: A similar phenomenon was observed

From patent publication US9133225B2, “Dual targeting anticancer agents” (priority 2013, dated 2015)
